What was measured:
c-Kit(V654A) = c-Kit(V654A) (Homo sapiens, UniProt P10721, V654A); assay: c-Kit(V654A) assay; assay type: biochemical; conditions: Table 1; 200 μM ATP
Procedure, shortened: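 Radiometric filter-binding read-out: after 3% phosphoric acid stop, peptide-incorporated 33P on filtermat scintillation-counted. Enzyme: human c-Kit V654A, residues 544–end, N-terminal GST fusion.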

[1] = target: mutant cKIT (560-576 and V654A) in GIST430/654 cell line (Homo sapiens (Human), UniProt P10721, DEL560-576/V654A); assay: Cellular testing of cKIT mutant inhibitors: phospho-Y307-cKIT Luminex assay in GIST430/654 cells; assay type: cell-based; conditions: Table 1; cKIT autophosphorylation, compounds 45 min; read-out: GIST 430/654 IC50
Sequence of mutant cKIT (560-576 and V654A) in GIST430/654 cell line (P10721 other isoform, or with tags, fused parts or gaps V654A/del 1-25/del 560-576 limits assumed): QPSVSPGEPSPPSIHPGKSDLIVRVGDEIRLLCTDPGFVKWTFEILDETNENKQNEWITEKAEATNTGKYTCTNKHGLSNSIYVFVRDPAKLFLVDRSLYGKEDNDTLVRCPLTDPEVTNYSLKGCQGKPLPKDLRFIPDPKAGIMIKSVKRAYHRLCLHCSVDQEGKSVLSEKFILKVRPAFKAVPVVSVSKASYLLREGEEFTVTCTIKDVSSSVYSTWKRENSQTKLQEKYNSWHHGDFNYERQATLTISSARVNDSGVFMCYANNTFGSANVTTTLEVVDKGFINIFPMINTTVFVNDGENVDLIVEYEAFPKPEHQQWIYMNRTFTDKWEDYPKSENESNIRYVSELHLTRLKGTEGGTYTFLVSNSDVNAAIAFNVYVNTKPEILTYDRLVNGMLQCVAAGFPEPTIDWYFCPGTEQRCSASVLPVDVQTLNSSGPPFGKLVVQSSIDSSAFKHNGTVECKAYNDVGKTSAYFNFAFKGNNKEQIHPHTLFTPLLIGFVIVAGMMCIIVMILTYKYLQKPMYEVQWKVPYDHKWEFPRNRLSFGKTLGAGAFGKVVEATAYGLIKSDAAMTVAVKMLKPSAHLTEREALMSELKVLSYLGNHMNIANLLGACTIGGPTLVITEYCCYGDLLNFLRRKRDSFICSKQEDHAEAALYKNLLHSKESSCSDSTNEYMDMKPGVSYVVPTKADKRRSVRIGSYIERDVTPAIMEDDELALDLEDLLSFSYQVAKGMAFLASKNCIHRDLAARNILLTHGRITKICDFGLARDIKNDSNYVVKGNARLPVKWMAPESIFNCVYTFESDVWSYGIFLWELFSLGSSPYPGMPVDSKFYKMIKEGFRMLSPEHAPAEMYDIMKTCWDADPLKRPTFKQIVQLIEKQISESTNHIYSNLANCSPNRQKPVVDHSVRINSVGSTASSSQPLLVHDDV
Procedure, shortened: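 Autophosphorylation of mutant cKIT at Y307 was quantified by a Luminex bead sandwich assay (total-cKIT capture, phosphospecific detection) after 45 min compound exposure in GIST430/654 cells, cultured in medium containing 100 nM imatinib. Signals were normalised to solvent (0.3% DMSO) controls and dose-response curves fitted for IC50.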

| SMILES | IC50 (c-Kit(V654A)) [µM] | IC50 [1] [µM] |
| --- | --- | --- |
| COCCOc1cc2[nH]nc(-c3cc(-c4ccc(C(=O)N5CCN(C6COC6)CC5)nc4)no3)c2cc1F [A68, (5-{5-[5-fluoro-6-(2-methoxy-ethoxy)-1H-indazol-3-yl]-isoxazol-3-yl}-pyridin-2-yl)-(4-oxetan-3-yl-piperazin-1-yl)-methanone] | 0.016 | 0.87 |
| COCCOc1cc2[nH]nc(-c3cc(-c4ccc(C(=O)N5CC(N6CCOCC6)C5)nc4)no3)c2cc1F [A69, (5-{5-[5-fluoro-6-(2-methoxy-ethoxy)-1H-indazol-3-yl]-isoxazol-3-yl}-pyridin-2-yl)-(3-morpholin-4-yl-azetidin-1-yl)-methanone] | 0.02 | 0.19 |
| COCCOc1cc2[nH]nc(-c3cc(-c4ccc(C(=O)N5C[C@H]6COC[C@H]6C5)c(C)c4)no3)c2cc1F [A70, (4-{5-[5-fluoro-6-(2-methoxy-ethoxy)-1H-indazol-3-yl]-isoxazol-3-yl}-2-methyl-phenyl)-(cis)-tetrahydro-furo[3,4-c]pyrrol-5-yl-methanone] | 0.0021 | 0.081 |
| COCCOc1cc2[nH]nc(-c3cc(-c4ccc(C(=O)N5C[C@H]6COC[C@H]6C5)c(F)c4)no3)c2cc1F [A71, (2-fluoro-4-{5-[5-fluoro-6-(2-methoxy-ethoxy)-1H-indazol-3-yl]-isoxazol-3-yl}-phenyl)-(cis)-tetrahydro-furo[3,4-c]pyrrol-5-yl-methanone] | 0.0043 | 0.09 |
| COCCOc1cc2[nH]nc(-c3cc(-c4ccc(C(=O)NCCN(C)C)cc4)no3)c2cc1F [A72, N-[2-(dimethylamino)ethyl]-4-{5-[5-fluoro-6-(2-methoxyethoxy)-1H-indazol-3-yl]-1,2-oxazol-3-yl}benzamide] | 0.0026 | 0.32 |
| COCCOc1cc2[nH]nc(-c3cc(-c4ccc(C(=O)NC5CN(C)C5)cc4)no3)c2cc1F [A73, 4-{5-[5-fluoro-6-(2-methoxyethoxy)-1H-indazol-3-yl]-1,2-oxazol-3-yl}-N-(1-methylazetidin-3-yl)benzamide] | 0.004 | 0.43 |
| COCCOc1cc2[nH]nc(-c3cc(-c4ccc(C(=O)N5CC(N(C)C)C5)cc4)no3)c2cc1F [A76, 1-(4-{5-[5-fluoro-6-(2-methoxyethoxy)-1H-indazol-3-yl]-1,2-oxazol-3-yl}benzoyl)-N,N-dimethylazetidin-3-amine] | 0.002 | 0.079 |
| COCCOc1cc2[nH]nc(-c3cc(-c4ccc(C(=O)N5CC(F)C5)cn4)no3)c2cc1F [A81, 5-fluoro-3-{3-[5-(3-fluoroazetidine-1-carbonyl)pyridin-2-yl]-1,2-oxazol-5-yl}-6-(2-methoxyethoxy)-1H-indazole] | 0.006 | 0.21 |
| COCCOc1cc2[nH]nc(-c3cc(-c4ccc(C(=O)N5CC(N6CCOCC6)C5)cn4)no3)c2cc1F [A82, 5-fluoro-6-(2-methoxyethoxy)-3-(3-{5-[3-(morpholin-4-yl)azetidine-1-carbonyl]pyridin-2-yl}-1,2-oxazol-5-yl)-1H-indazole] | 0.0098 | 0.42 |
| COCCOc1cc2[nH]nc(-c3cc(-c4nc(C(=O)N5CC(N6CCOCC6)C5)cs4)no3)c2cc1F [A84, 5-fluoro-6-(2-methoxyethoxy)-3-(3-{4-[3-(morpholin-4-yl)azetidine-1-carbonyl]-1,3-thiazol-2-yl}-1,2-oxazol-5-yl)-1H-indazole] | 0.035 | 1.8 |
| COCCOc1cc2[nH]nc(-c3cc(-c4nc(C(=O)N5CC(F)C5)cs4)no3)c2cc1F [A87, 5-fluoro-3-{3-[4-(3-fluoroazetidine-1-carbonyl)-1,3-thiazol-2-yl]-1,2-oxazol-5-yl}-6-(2-methoxyethoxy)-1H-indazole] | 0.038 | 0.59 |
| COCCOc1cc2[nH]nc(-c3cc(-c4ccc(C(=O)N5CC6(CN(C)C6)C5)cc4)no3)c2cc1F [A88, 5-fluoro-6-(2-methoxyethoxy)-3-[3-(4-{6-methyl-2,6-diazaspiro[3.3]heptane-2-carbonyl}phenyl)-1,2-oxazol-5-yl]-1H-indazole] | 0.0023 | 0.17 |
| COCCOc1cc2[nH]nc(-c3cc(-c4ccc(C(=O)N(C)C)cn4)no3)c2cc1F [A91, 6-{5-[5-fluoro-6-(2-methoxyethoxy)-1H-indazol-3-yl]-1,2-oxazol-3-yl}-N,N-dimethylpyridine-3-carboxamide] | 0.0072 | 0.29 |
| COCCOc1cc2[nH]nc(-c3cc(-c4ncc(C(=O)N(C)C)s4)no3)c2cc1F [A92, 2-{5-[5-fluoro-6-(2-methoxyethoxy)-1H-indazol-3-yl]-1,2-oxazol-3-yl}-N,N-dimethyl-1,3-thiazole-5-carboxamide] | 0.055 | 0.36 |
| COCCOc1cc2[nH]nc(-c3cc(-c4nc(C(=O)N(C)C)cs4)no3)c2cc1F [A93, 2-{5-[5-fluoro-6-(2-methoxyethoxy)-1H-indazol-3-yl]-1,2-oxazol-3-yl}-N,N-dimethyl-1,3-thiazole-4-carboxamide] | 0.053 | 0.39 |

Compounds with a lower IC50 (c-Kit(V654A)), results first:

| IC50 (c-Kit(V654A)) [µM] | IC50 [1] [µM] | SMILES |
| --- | --- | --- |
| 0.00089 | 0.16 | COCCOc1cc2[nH]nc(-c3cc(-c4ccc(C(=O)N5CC(N6CCN(C)CC6)C5)cc4)no3)c2cc1Cl [A65, (4-{5-[5-chloro-6-(2-methoxy-ethoxy)-1H-indazol-3-yl]-isoxazol-3-yl}-phenyl)-[3-(4-methyl-piperazin-1-yl)-azetidin-1-yl]-methanone] |
| 0.00065 | 0.052 | COCCOc1cc2[nH]nc(-c3cc(-c4ccc(C(=O)N5CCOC[C@@H]5CO)cc4)no3)c2cc1Cl [A66, (4-{5-[5-chloro-6-(2-methoxy-ethoxy)-1H-indazol-3-yl]-isoxazol-3-yl}-phenyl)-((S)-3-hydroxymethyl-morpholin-4-yl)-methanone] |
| 0.00088 | 0.094 | COCCOc1cc2[nH]nc(-c3cc(-c4ccc(C(=O)N5CCOC[C@H]5CO)cc4)no3)c2cc1Cl [A67, (4-{5-[5-chloro-6-(2-methoxy-ethoxy)-1H-indazol-3-yl]-isoxazol-3-yl}-phenyl)-((R)-3-hydroxymethyl-morpholin-4-yl)-methanone] |
| 0.0013 | 0.052 | COCCOc1cc2[nH]nc(-c3cc(-c4ccc(C(=O)N5CC6(COC6)C5)cc4)no3)c2cc1F [A74, 5-fluoro-6-(2-methoxyethoxy)-3-[3-(4-{2-oxa-6-azaspiro[3.3]heptane-6-carbonyl}phenyl)-1,2-oxazol-5-yl]-1H-indazole] |
| 0.0014 | 0.059 | COCCOc1cc2[nH]nc(-c3cc(-c4ccc(C(=O)N5CC(n6cccn6)C5)cc4)no3)c2cc1F [A75, 5-fluoro-6-(2-methoxyethoxy)-3-(3-{4-[3-(1H-pyrazol-1-yl)azetidine-1-carbonyl]phenyl}-1,2-oxazol-5-yl)-1H-indazole] |
| 0.001 | 0.047 | COCCOc1cc2[nH]nc(-c3cc(-c4ccc(C(=O)N5CC6(CCOC6)C5)cc4)no3)c2cc1F [A77, 5-fluoro-6-(2-methoxyethoxy)-3-[3-(4-{6-oxa-2-azaspiro[3.4]octane-2-carbonyl}phenyl)-1,2-oxazol-5-yl]-1H-indazole] |
| 0.00076 | 0.16 | COCCOc1cc2[nH]nc(-c3cc(-c4ccc(C(=O)N5CC[S+]([O-])CC5)cc4)no3)c2cc1F [A78, 4-(4-{5-[5-fluoro-6-(2-methoxyethoxy)-1H-indazol-3-yl]-1,2-oxazol-3-yl}benzoyl)-1lambda4-thiomorpholin-1-one] |
| 0.0011 | 0.17 | COCCOc1cc2[nH]nc(-c3cc(-c4ccc(C(=O)N5CC6(CCO6)C5)cc4)no3)c2cc1F [A79, 5-fluoro-6-(2-methoxyethoxy)-3-[3-(4-{1-oxa-6-azaspiro[3.3]heptane-6-carbonyl}phenyl)-1,2-oxazol-5-yl]-1H-indazole] |
| 0.00099 | 0.46 | COCCOc1cc2[nH]nc(-c3cc(-c4ccc(C(=O)N5CCS(=N)(=O)CC5)cc4)no3)c2cc1F [A80, 4-(4-{5-[5-fluoro-6-(2-methoxyethoxy)-1H-indazol-3-yl]-1,2-oxazol-3-yl}benzoyl)-1-imino-1lambda6-thiomorpholin-1-one] |
| 0.00063 | 0.13 | COCCOc1cc2[nH]nc(-c3cc(-c4ccc(C(=O)N5CC(n6ccnc6)C5)cc4)no3)c2cc1F [A85, 5-fluoro-3-(3-{4-[3-(1H-imidazol-1-yl)azetidine-1-carbonyl]phenyl}-1,2-oxazol-5-yl)-6-(2-methoxyethoxy)-1H-indazole] |
| 0.00047 | 0.12 | COCCOc1cc2[nH]nc(-c3cc(-c4ccc(C(=O)N5CCC[C@H]5CNS(C)(=O)=O)cc4)no3)c2cc1F [A90, N-{[(2S)-1-(4-{5-[5-fluoro-6-(2-methoxyethoxy)-1H-indazol-3-yl]-1,2-oxazol-3-yl}benzoyl)pyrrolidin-2-yl]methyl}methanesulfonamide] |
| 0.00058 | 0.1 | COCCOc1cc2[nH]nc(-c3cc(-c4ccc(C(=O)N5CCC[C@@H]5CNS(C)(=O)=O)cc4)no3)c2cc1F [A94, N-{[(2R)-1-(4-{5-[5-fluoro-6-(2-methoxyethoxy)-1H-indazol-3-yl]-1,2-oxazol-3-yl}benzoyl)pyrrolidin-2-yl]methyl}methanesulfonamide] |
| 0.00091 | 0.037 | COCCOc1cc2[nH]nc(-c3cc(-c4ccc(C(=O)N5CC[C@H]5CO)cc4)no3)c2cc1F [A95, [(2S)-1-(4-{5-[5-fluoro-6-(2-methoxyethoxy)-1H-indazol-3-yl]-1,2-oxazol-3-yl}benzoyl)azetidin-2-yl]methanol] |

From patent US20260042753A1 (Merck Patent GmbH, priority 2019, published 2026)
